In patent publication US20150105252A1, “SUBSTITUTED PYRAZOLES AS HERBICIDES” (E I DU PONT DE NEMOURS AND COMPANY, priority 2013, published 2015):

Experiments:
field poppy = assay: Test D preemergence; assay type: in vivo, Papaver rhoeas; details: scale 0 to 100
Summary of the method: (§1)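 Formulation was a non-phytotoxic solvent mixture plus surfactant, applied either to soil at planting (silt loam, preemergence) or to foliage of 2–18 cm plants (postemergence). Visual evaluation versus controls followed at 14–21 days, scored 0–100.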

field violet = assay: Test D preemergence; assay type: in vivo, Viola arvensis; details: scale 0 to 100
Summary of the method: as §1

foxtail, green = assay: Test D preemergence; assay type: in vivo, Setaria viridis; details: scale 0 to 100
Summary of the method: as §1

oilseed rape = assay: Test D preemergence; assay type: in vivo, Brassica napus; details: scale 0 to 100
Summary of the method: as §1

radish, wild = assay: Test D preemergence; assay type: in vivo, Raphanus raphanistrum; details: scale 0 to 100
Summary of the method: as §1

blackgrass = assay: Test D postemergence; assay type: in vivo, Alopecurus myosuroides; details: scale 0 to 100
Summary of the method: as §1

ryegrass, Italian = assay: Test D postemergence; assay type: in vivo, Lolium multiflorum; details: scale 0 to 100
Summary of the method: as §1

lambsquarters = assay: Test D postemergence; assay type: in vivo, Chenopodium album; details: scale 0 to 100
Summary of the method: as §1

chamomile = assay: Test D postemergence; assay type: in vivo, Matricaria inodora; details: scale 0 to 100
Summary of the method: as §1

windgrass = assay: Test D postemergence; assay type: in vivo, Apera spica-venti; details: scale 0 to 100
Summary of the method: as §1

velvetleaf = assay: Test F preemergence; assay type: in vivo, Abutilon theophrasti
Summary of the method: (§2)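 Formulated in surfactant-containing non-phytotoxic solvent; pre: applied to seeded silt loam; post: applied to plants 2–18 cm (1–4 leaves); greenhouse 14–21 d; visual 0–100 rating vs controls.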

morningglory = assay: Test F preemergence; assay type: in vivo, Ipomoea coccinea
Summary of the method: as §2

nightshade = assay: Test F preemergence; assay type: in vivo, Solanum ptycanthum
Summary of the method: as §2

yellow nutsedge = assay: Test F preemergence; assay type: in vivo, Cyperus esculentus
Summary of the method: as §2

[1] = Preemergence, 62 g ai/ha, scale 0 to 100
[2] = Preemergence, 125 g ai/ha, scale 0 to 100
[3] = preemergence, 8 g ai/ha, scale 0 to 100, 100 is complete control
[4] = Preemergence, 16 g ai/ha, scale 0 to 100

CCOc1cc(C(=O)NC(C)C)nn1Cc1ccnc(C(F)(F)F)c1 [Compound 188]
Plant response rating, Field Poppy (field poppy; 62 g ai/ha): 100
Plant response rating, Field Poppy (field poppy; 125 g ai/ha): 100
Plant response rating, Field Poppy (field poppy; 250 g ai/ha): 100
Plant response rating, Field Violet (field violet; 62 g ai/ha): 100
Plant response rating, Field Violet (field violet; 125 g ai/ha): 100
Plant response rating, Field Violet (field violet; 250 g ai/ha): 100
Plant response rating, Foxtail, Green (foxtail, green; 62 g ai/ha): 100
Plant response rating, Foxtail, Green (foxtail, green; 125 g ai/ha): 100
Plant response rating, Foxtail, Green (foxtail, green; 250 g ai/ha): 100
Plant response rating, Oilseed Rape (oilseed rape; 62 g ai/ha): 85
Plant response rating, Oilseed Rape (oilseed rape; 125 g ai/ha): 100
Plant response rating, Oilseed Rape (oilseed rape; 250 g ai/ha): 100
Plant response rating, Radish, Wild (radish, wild; 62 g ai/ha): 100
Plant response rating, Radish, Wild (radish, wild; 125 g ai/ha): 100
Plant response rating, Radish, Wild (radish, wild; 250 g ai/ha): 100
Blackgrass plant response rating (blackgrass; Postemergence, 31 g ai/ha): 15
Blackgrass plant response rating (blackgrass; Postemergence, 125 g ai/ha): 35
Blackgrass plant response rating (blackgrass; Postemergence, 250 g ai/ha): 45
Blackgrass plant response rating (blackgrass; postemergence, 62 g ai/ha): 15
Ryegrass, Italian plant response rating (ryegrass, Italian; Postemergence, 31 g ai/ha): 20
Ryegrass, Italian plant response rating (ryegrass, Italian; Postemergence, 125 g ai/ha): 25
Ryegrass, Italian plant response rating (ryegrass, Italian; Postemergence, 250 g ai/ha): 65
Ryegrass, Italian plant response rating (ryegrass, Italian; postemergence, 62 g ai/ha): 20
Lambsquarters plant response rating (lambsquarters; Postemergence, 31 g ai/ha): 70
Lambsquarters plant response rating (lambsquarters; Postemergence, 125 g ai/ha): 80
Lambsquarters plant response rating (lambsquarters; Postemergence, 250 g ai/ha): 90
Lambsquarters plant response rating (lambsquarters; postemergence, 62 g ai/ha): 70
Chamomile plant response rating (chamomile; Postemergence, 31 g ai/ha): 65
Chamomile plant response rating (chamomile; Postemergence, 125 g ai/ha): 70
Chamomile plant response rating (chamomile; Postemergence, 250 g ai/ha): 75
Chamomile plant response rating (chamomile; postemergence, 62 g ai/ha): 65
Windgrass plant response rating (windgrass; Postemergence, 31 g ai/ha): 20
Windgrass plant response rating (windgrass; Postemergence, 125 g ai/ha): 35
Windgrass plant response rating (windgrass; Postemergence, 250 g ai/ha): 45
Windgrass plant response rating (windgrass; postemergence, 62 g ai/ha): 20
Plant response rating, Velvetleaf (velvetleaf; [1]): 100
Plant response rating, Velvetleaf (velvetleaf; [2]): 100
Plant response rating, Velvetleaf (velvetleaf; [3]): 0
Plant response rating, Velvetleaf (velvetleaf; preemergence, scale 0 to 100, 100 is complete control): 20
Plant response rating, Morningglory (morningglory; [4]): 30
Plant response rating, Morningglory (morningglory; [1]): 70
Plant response rating, Morningglory (morningglory; [2]): 100
Plant response rating, Morningglory (morningglory; [3]): 65
Plant response rating, Nightshade (nightshade; [4]): 98
Plant response rating, Nightshade (nightshade; [1]): 95
Plant response rating, Nightshade (nightshade; [2]): 98
Plant response rating, Nightshade (nightshade; [3]): 0
Plant response rating, Yellow Nutsedge (yellow nutsedge; [1]): 15
Plant response rating, Yellow Nutsedge (yellow nutsedge; [2]): 70
Plant response rating, Yellow Nutsedge (yellow nutsedge; [3]): 0
